From PMC6792352, “Limited Chemical Structural Diversity Found to Modulate Thyroid Hormone Receptor in the Tox21 Chemical Library” (Environmental Health Perspectives, 2019)
Structures can show the parent of a compound that is named as a salt. No end group written: not given here.

test: in vitro; settings: rat, gh3-tre-luc cells, AC50 (uM) modified / 1000

Molecule | CC50 at 24 h [µM]
Cc1nnc(SCC2=C(C(=O)O)N3C(=O)[C@@H](NC(=O)Cn4cnnn4)[C@H]3SC2)s1 [Cefazolin] | > 50
CCN1CN(CC)CN(CC)C1 [1,3,5-Triethylhexahydro-s-triazine] | > 90
O=C(C(=O)c1ccc(Br)cc1)c1ccc(Br)cc1 [4,4'-Dibromobenzil] | > 30
CCn1nc(C)c2c1C(=O)NCC(c1ccc(O)cc1)=N2 [PharmaGSID_47263] | > 90
C=CC(C)(C)C [3,3-Dimethyl-1-butene] | > 90
CN(C)c1ccc(C2(c3ccc(N(C)C)cc3)OC(=O)c3cc(N(C)C)ccc32)cc1 [Crystal Violet lactone] | > 90
CC(=O)C(C)O (stereo not drawn) [Acetoin] | > 90
BrCc1ccc(Br)cc1 [4-Bromobenzyl bromide] | > 90
CCCOc1ccc(S(=O)(=O)N2CCN(CC)CC2)cc1-c1nc2c(CC)n(Cc3ccccn3)nc2c(=O)[nH]1 [UK-343664] | > 90
CCOC(=O)NC(=S)Nc1ccccc1NC(=S)NC(=O)OCC [Thiophanate] | > 90
Cn1c([N+](=O)[O-])cnc1COC(N)=O [Ronidazole] | > 50
CCC(C)n1c(=O)[nH]c(C)c(Br)c1=O (stereo not drawn) [Bromacil] | > 90
CC(=O)O[C@H]1C[C@H](O[C@H]2[C@@H](O)C[C@H](O[C@H]3[C@@H](O)C[C@H](O[C@H]4CC[C@@]5(C)[C@H](CC[C@@H]6[C@@H]5CC[C@]5(C)[C@@H](C7=CC(=O)OC7)[C@@H](O)C[C@]65O)C4)O[C@@H]3C)O[C@@H]2C)O[C@H](C)[C@H]1O[C@@H]1O[C@H](CO)[C@@H](O)[C@H](O)[C@H]1O [Lanatoside B] | > 50
Cc1cccc(C)c1NC(=O)C(C)N (stereo not drawn) [Tocainide hydrochloride] | > 20
C=C1CC/C=C(\C)CC[C@@H]2[C@@H]1CC2(C)C [beta-Caryophyllene] | > 90
COC(C)(C)CC(C)=O [4-Methoxy-4-methyl-2-pentanone] | > 90
C[C@H]1COc2c(C3(N)CC3)c(F)cc3c(=O)c(C(=O)O)cn1c23 [Pazufloxacin] | > 50
O=[N+]([O-])c1cccc2cccnc12 [8-Nitroquinoline] | > 90
CCCCCCCCS [1-Octanethiol] | > 90
NC[C@H]1O[C@H](O[C@H]2[C@H](O)[C@@H](O[C@H]3O[C@H](CO)[C@@H](O)[C@H](N)[C@H]3O)[C@H](N)C[C@@H]2N)[C@H](N)C[C@@H]1O [Tobramycin] | > 20
CCOc1ccccc1OCCN[C@H](C)Cc1ccc(OC)c(S(N)(=O)=O)c1 [Tamsulosin hydrochloride] | > 50
C=CC(=O)OCCOC(=O)CCC(=O)O [4-[2-(Acryloyloxy)ethoxy]-4-oxobutanoic acid] | > 90
CC(CCO)CC(C)(C)C (stereo not drawn) [3,5,5-Trimethyl-1-hexanol] | > 90
CCCCCCCC(=O)OCC(COC(=O)CCCCCCC)OC(=O)CCCCCCC [Tricaprylin] | > 90
CC(CN=Cc1ccccc1O)N=Cc1ccccc1O (stereo not drawn) [N,N'-Disalicylidene-1,2-diaminopropane] | > 90
Nc1ccn([C@@H]2CS[C@H](CO)O2)c(=O)n1 [Lamivudine] | > 90
CC1(C)S[C@@H]2[C@H](NC(=O)[C@H](NC(=O)N3CCN(S(C)(=O)=O)C3=O)c3ccccc3)C(=O)N2[C@H]1C(=O)O [Mezlocillin] | > 50

Molecule | CC50 at 24 h [µM]
C[Si](C)(C)C [Tetramethylsilane] | > 90
Cn1cc[n+](CCO)c1 [1-(2-Hydroxyethyl)-3-methylimidazolium chloride] | > 90
c1ccc2c(c1)Oc1ccccc1S2 [Phenoxathiin] | > 90
O=C(O)C1(C(=O)Nc2ccc(Cl)cc2Cl)CC1 [Cyclanilide] | > 90
CCc1cc(SCc2sc(-c3ccc(C(F)(F)F)cc3)nc2CN2CCN(c3ccc(OC)cc3)CC2)ccc1OCC(=O)O [PharmaGSID_47315] | 22.4
RKDVY [Thymopentin] | > 50
CC(=O)Oc1cccc(C)c1 [m-Cresyl acetate] | > 50
Clc1cc(Cl)c(OCC#CI)cc1Cl [Haloprogin] | 11.9
OCC(O)c1ccccc1 (stereo not drawn) [Styrene glycol] | > 90
CCCC(CCC)C(=O)O [Valproic acid] | > 90
Nc1ccc([N+](=O)[O-])c(N)c1 [4-Nitro-1,3-benzenediamine] | 64.4
CC(=O)Oc1ccc(C)cc1 [4-Tolyl acetate] | > 90
Cc1ccc(Nc2ccc(O)c3c2C(=O)c2ccccc2C3=O)cc1 [D&C Violet 2] | > 90
CCc1cc(S(=O)(=O)O)c2cc(C(C)C)cccc1-2 [Egualen sodium] | > 50
Nc1ccc(Oc2ccc(Cl)cc2)cc1 [4-Chloro-4'-aminodiphenyl ether] | > 90
CC(=O)N[C@H]1[C@H]([C@H](O)[C@H](O)CO)OC(C(=O)O)=C[C@@H]1N=C(N)N [Zanamivir] | > 50
C[C@@H](NCCc1ccc(O)cc1)[C@@H](O)c1ccc(O)cc1 (racemic) [Ritodrine hydrochloride] | > 50
Cc1cc(C)cc([N+](=O)[O-])c1 [1,3-Dimethyl-5-nitrobenzene] | > 90
CC(C)CCCC(C)CC=O (stereo not drawn) [3,7-Dimethyloctanal] | > 90
O=C(O)CO [Glycolic acid] | > 90
CC(C)(CO)[C@@H](O)C(=O)NCCCO [Dexpanthenol] | > 50
Cc1cc(C)c(C2=C(OC(=O)CC(C)(C)C)C3(CCCC3)OC2=O)c(C)c1 [Spiromesifen] | > 100
CN(CCCN1c2ccccc2CCc2ccccc21)CC(=O)c1ccc(Cl)cc1 [Lofepramine hydrochloride] | 22
CC(C)(C)C1=CC(=O)C=C(C(C)(C)C)C1=O [2,6-Bis-(1,1-dimethylethyl)-2,5-cyclohexadiene-1,4-dione] | > 90
O=C1CC2(CCCC2)CC(=O)N1CCNCC1COc2ccccc2O1 (stereo not drawn) [Binospirone mesylate] | 41.9
O=C(Oc1ccccc1)c1ccccc1C(=O)Oc1ccccc1 [Diphenyl phthalate] | 53.7
CC1(C)[C@@H]2CC[C@@]1(C)[C@H](O)C2 [Isoborneol] | > 90

Molecule | CC50 at 24 h [µM]
CO/N=C(\C(=O)N[C@@H]1C(=O)N2C(C(=O)O)=CCS[C@H]12)c1csc(N)n1 [Ceftizoxime sodium] | > 50
COC(=O)c1ccccc1S(=O)(=O)NC(=O)N(C)c1nc(C)nc(OC)n1 [Tribenuron-methyl] | > 100
CCCCCCCCCCCCCCCCCCCl [Octadecyl chloride] | > 5
O=C(NC(=O)c1c(F)cccc1F)Nc1cc(Cl)c(OC(F)(F)C(F)C(F)(F)F)cc1Cl (stereo not drawn) [Lufenuron] | > 90
NNC(=O)c1ccccc1 [Benzoyl hydrazine] | > 90
CC(c1ccc(O)cc1)c1ccc(O)cc1 [Bisphenol E] | > 90
CC1(C)C(C=C(Cl)Cl)[C@@H]1C(=O)O[C@@H](C#N)c1ccc(F)c(Oc2ccccc2)c1 (stereo partly drawn) [Cyfluthrin] | > 90
CO[C@@H]1COCC[C@@H]1N[C@@H]1CC[C@@](C(=O)N2CCc3ncc(C(F)(F)F)cc3C2)(C(C)C)C1 [MK-812] | > 90
CCCCOCCOCCOCCO [2-[2-(2-Butoxyethoxy)ethoxy]ethanol] | > 90
COc1cc(C(=O)OC(COCCC(C)C)CN2CCOCC2)cc(OC)c1OC (stereo not drawn) [Amoproxan] | > 50
O=C(NC(=O)c1c(F)cccc1F)Nc1cc(Cl)c(F)c(Cl)c1F [Teflubenzuron] | > 80
CCCOC(C)=O [Propyl acetate] | > 90
CC(N)=O [Acetamide] | > 200
Cc1cccc(Nc2cc(Cl)nc(SCC(=O)O)n2)c1C [Pirinixic acid] | > 90
C#C[C@]1(O)CC[C@H]2[C@@H]3CCC4=CC(=O)CC[C@]4(C)[C@H]3CC[C@@]21C [Ethisterone] | > 90
CCN1CCN(c2cc3c(cc2F)c(=O)c(C(=O)O)cn3C2CC2)CC1 [Enrofloxacin] | > 50
FC(F)(F)C(F)(F)C(F)(F)C(F)(F)CCI [1,1,1,2,2,3,3,4,4-Nonafluoro-6-iodohexane] | > 40
CC(C)CN(C[C@@H](O)[C@H](Cc1ccccc1)NC(=O)O[C@H]1CO[C@H]2OCC[C@H]21)S(=O)(=O)c1ccc(N)cc1 [Darunavir] | > 50
C[n+]1ccccc1/C=N/O [Pralidoxime chloride] | > 20
CC(C)(C)N(CCO)CCO [2,2'-(tert-Butylimino)diethanol] | > 90
C[C@@H]1CN(CCCn2c3ccccc3c3ccccc32)C[C@H](C)N1 [Rimcazole dihydrochloride] | 7.99
OC1CCCCC1c1ccccc1 (stereo not drawn) [2-Phenylcyclohexanol] | > 90
COc1ccc2c3c1O[C@H]1C(=O)CC[C@H]4[C@@H](C2)N(C)CC[C@]314 [Hydrocodone phosphate (2:3) monohydrate] | > 50
CC(=O)N[C@@H]([C@@H](O)[C@H](O)[C@H](O)CO)[C@@H](O)CC(=O)C(=O)O [Aceneuramic acid] | > 50
CCCCCCCCCCO[C@@H]1O[C@H](CO)[C@@H](O)[C@H](O)[C@H]1O [Decyl beta-D-glucopyranoside] | > 90
O=CNC(N1CCN(C(NC=O)C(Cl)(Cl)Cl)CC1)C(Cl)(Cl)Cl (stereo not drawn) [Triforine] | > 90

same assay, conditions: rat, gh3-tre-luc cells, AC50 (uM) modified / 1000, Tox21_110001=Tox21_110665; viability, 1 nM T3 present, 24 h

Molecule | CC50 at 24 h [µM]
CCC1(c2cccc(O)c2)CCCCN(C)C1 (stereo not drawn) [Meptazinol hydrochloride] | > 20

same assay, conditions: rat, gh3-tre-luc cells, AC50 (uM) modified / 1000, Tox21_110001=Tox21_202864; viability, 1 nM T3 present, 24 h

Molecule | CC50 at 24 h [µM]
CCCCCCCCCBr [n-Nonyl bromide] | > 90

same assay, conditions: rat, gh3-tre-luc cells, AC50 (uM) modified / 1000, Tox21_110001=Tox21_300964; viability, 1 nM T3 present, 24 h

Molecule | CC50 at 24 h [µM]
O=C(CCl)NCO [2-Chloro-N-(hydroxymethyl)acetamide] | > 90

same assay, conditions: rat, gh3-tre-luc cells, AC50 (uM) modified / 1000, Tox21_110001=Tox21_300968; viability, 1 nM T3 present, 24 h

Molecule | CC50 at 24 h [µM]
CNC(=O)CSP(=O)(OC)OC [Omethoate] | > 90
